Assay results reported in PubChem BioAssay (NCI).
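In this assay, cells in 96-well plates receive the compound at five concentrations for 48 hours. Endpoints are linearly interpolated between the surrounding concentrations. TGI is the concentration that stops growth completely.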 *1 amine or outer side, *2 acyl side, *3 side chain or, on linkers, in order; H or OH if unused. Where a SMILES comes first, the peptide text is derived from it. [ ]: non-standard residue; d: D form. The star is where a group is joined. X31 = CC(=O)N(C)SCC(N[*:1])C(=O)[*:2]; Fmoc = O=C(OCC1c2ccccc2-c2ccccc21)*; For = O=C*

How the values were obtained:
Assay in all cases: NCI anticancer screen, dose series, 48 h
T-47D breast = test system: T-47D breast
TK-10 renal = test system: TK-10 renal
UO-31 renal = test system: UO-31 renal
OVCAR-3 ovarian = test system: OVCAR-3 ovarian
CAKI-1 renal = test system: CAKI-1 renal
SF-539 CNS = test system: SF-539 CNS
K-562 leukemia = test system: K-562 leukemia
RPMI-8226 leukemia = test system: RPMI-8226 leukemia

## COC(=O)C1=NN2c3ccccc3CN([C@@H](C)c3ccccc3)C(=O)[C@H]2[C@@H]1C
T-47D breast
  TGI: 88.3 µM
TK-10 renal
  TGI: > 100 µM
UO-31 renal
  TGI: > 100 µM
OVCAR-3 ovarian
  TGI: > 100 µM
CAKI-1 renal
  TGI: > 100 µM
SF-539 CNS
  TGI: > 100 µM
K-562 leukemia
  TGI: > 100 µM

## CCc1n[nH]c(=S)n1/N=C\c1ccc(-c2ccccc2[N+](=O)[O-])o1
T-47D breast
  TGI: > 100 µM
TK-10 renal
  TGI: > 100 µM
UO-31 renal
  TGI: > 100 µM
RPMI-8226 leukemia
  TGI: 88.1 µM
OVCAR-3 ovarian
  TGI: 46.8 µM
CAKI-1 renal
  TGI: > 100 µM
SF-539 CNS
  TGI: > 100 µM
K-562 leukemia
  TGI: > 100 µM

## CN1CCCC(C(=O)OCC(=O)C2(O)CCC3C4CCC5=CC(=O)CCC5(C)C4C(O)CC32C)C1 (stereo unspecified)
T-47D breast
  TGI: 34.5 µM
TK-10 renal
  TGI: 42.2 µM
UO-31 renal
  TGI: 25.4 µM
RPMI-8226 leukemia
  TGI: 27.8 µM
OVCAR-3 ovarian
  TGI: 32.8 µM
CAKI-1 renal
  TGI: > 65.8 µM
SF-539 CNS
  TGI: 4.38 µM
K-562 leukemia
  TGI: 28.7 µM

## CC/C=C/C(/C=C/C[C@]1(CC)C[C@H](CC)[C@H](CC(=O)O)OO1)CC (stereo partly specified)
T-47D breast
  TGI: > 23.1 µM
TK-10 renal
  TGI: 3.69 µM
UO-31 renal
  TGI: 0.947 µM
RPMI-8226 leukemia
  TGI: 4.43 µM
OVCAR-3 ovarian
  TGI: 4.17 µM
CAKI-1 renal
  TGI: 4.82 µM
SF-539 CNS
  TGI: 4.07 µM
K-562 leukemia
  TGI: > 29.8 µM

## CC(=O)NC1C(OCc2ccccc2)OC(CO)C(O)C1OCC(=O)N1CCCC1C(=O)NC(CCC(=O)NCCCCCNc1c2ccccc2nc2cccc([N+](=O)[O-])c12)C(N)=O (stereo unspecified)
T-47D breast
  TGI: 8.41 µM
TK-10 renal
  TGI: 0.762 µM
UO-31 renal
  TGI: 0.115 µM
RPMI-8226 leukemia
  TGI: 0.789 µM
OVCAR-3 ovarian
  TGI: 0.142 µM
CAKI-1 renal
  TGI: 0.134 µM
SF-539 CNS
  TGI: 0.097 µM
K-562 leukemia
  TGI: 0.0475 µM

## CCCCCCC(=O)OC[n+]1cccc(-c2c(COC(=O)NC(C)C)c(COC(=O)NC(C)C)c3n2CCC3)c1
T-47D breast
  TGI: > 100 µM
TK-10 renal
  TGI: > 100 µM
UO-31 renal
  TGI: 63.7 µM
RPMI-8226 leukemia
  TGI: > 100 µM
OVCAR-3 ovarian
  TGI: > 100 µM
CAKI-1 renal
  TGI: 47.8 µM
SF-539 CNS
  TGI: > 75 µM
K-562 leukemia
  TGI: > 100 µM

## Cc1cc(-c2ccc(C(=O)C(c3ccccc3)(c3ccccc3)c3ccccc3)[nH]2)on1
T-47D breast
  TGI: > 100 µM
UO-31 renal
  TGI: 30.2 µM
RPMI-8226 leukemia
  TGI: 48.1 µM
OVCAR-3 ovarian
  TGI: > 100 µM
CAKI-1 renal
  TGI: 69.5 µM
SF-539 CNS
  TGI: > 100 µM
K-562 leukemia
  TGI: > 100 µM

## NCCC1([N+](=O)[O-])CCNCC1
T-47D breast
  TGI: > 100 µM
TK-10 renal
  TGI: > 100 µM
UO-31 renal
  TGI: > 100 µM
RPMI-8226 leukemia
  TGI: > 100 µM
OVCAR-3 ovarian
  TGI: > 100 µM
CAKI-1 renal
  TGI: > 100 µM
SF-539 CNS
  TGI: > 100 µM
K-562 leukemia
  TGI: > 100 µM

## Cc1ccc(Nc2cn(COCc3ccccc3)c(=O)[nH]c2=O)cc1
UO-31 renal
  TGI: > 100 µM
RPMI-8226 leukemia
  TGI: > 100 µM
OVCAR-3 ovarian
  TGI: > 100 µM
CAKI-1 renal
  TGI: > 100 µM
K-562 leukemia
  TGI: > 100 µM

## CSc1nc(C)c(CCCl)c(Cl)n1
T-47D breast
  TGI: > 100 µM
TK-10 renal
  TGI: > 100 µM
UO-31 renal
  TGI: > 100 µM
OVCAR-3 ovarian
  TGI: > 100 µM
CAKI-1 renal
  TGI: > 100 µM
SF-539 CNS
  TGI: > 100 µM
K-562 leukemia
  TGI: > 100 µM

## Nc1cc(N)c(N=Nc2cccc3c(S(=O)(=O)O)cccc23)cc1N=Nc1cc([N+](=O)[O-])ccc1O
T-47D breast
  TGI: > 100 µM
TK-10 renal
  TGI: > 100 µM
UO-31 renal
  TGI: > 100 µM
RPMI-8226 leukemia
  TGI: > 100 µM
OVCAR-3 ovarian
  TGI: > 100 µM
CAKI-1 renal
  TGI: > 100 µM
SF-539 CNS
  TGI: > 100 µM
K-562 leukemia
  TGI: > 100 µM

## CCN1C(=O)CS/C1=N\NC(=O)CSc1nc2ccccc2c(=O)n1CC
T-47D breast
  TGI: > 100 µM
TK-10 renal
  TGI: > 100 µM
UO-31 renal
  TGI: > 100 µM
RPMI-8226 leukemia
  TGI: > 100 µM
OVCAR-3 ovarian
  TGI: > 100 µM
CAKI-1 renal
  TGI: > 100 µM
SF-539 CNS
  TGI: > 100 µM
K-562 leukemia
  TGI: > 100 µM

## O=C1C(NS(=O)(=O)c2ccccc2)=C(N(Cc2ccccc2)Cc2ccccc2)C(=O)c2ccccc21
T-47D breast
  TGI: > 100 µM
TK-10 renal
  TGI: > 100 µM
UO-31 renal
  TGI: 51.3 µM
RPMI-8226 leukemia
  TGI: 72.7 µM
OVCAR-3 ovarian
  TGI: > 100 µM
CAKI-1 renal
  TGI: > 100 µM
SF-539 CNS
  TGI: > 100 µM
K-562 leukemia
  TGI: > 100 µM

## N#Cc1c(N2CCOCC2)ncn(-c2ccc(Cl)cc2)c1=O
T-47D breast
  TGI: > 100 µM
UO-31 renal
  TGI: > 100 µM
RPMI-8226 leukemia
  TGI: > 100 µM
OVCAR-3 ovarian
  TGI: > 100 µM
CAKI-1 renal
  TGI: > 100 µM
SF-539 CNS
  TGI: > 100 µM
K-562 leukemia
  TGI: > 100 µM

## Cc1cc(C#N)c(Nc2ccccc2[N+](=O)[O-])s1
T-47D breast
  TGI: > 100 µM
UO-31 renal
  TGI: > 100 µM
RPMI-8226 leukemia
  TGI: > 100 µM
OVCAR-3 ovarian
  TGI: 71.5 µM
CAKI-1 renal
  TGI: > 100 µM
SF-539 CNS
  TGI: > 100 µM
K-562 leukemia
  TGI: > 100 µM

## C=C(CC)C[C@@H]1C[C@]2(C(=O)OC)c3[nH]c4ccccc4c3CCN2C1=O
T-47D breast
  TGI: > 100 µM
TK-10 renal
  TGI: > 100 µM
UO-31 renal
  TGI: 38.6 µM
OVCAR-3 ovarian
  TGI: 27.9 µM
CAKI-1 renal
  TGI: 48.6 µM
SF-539 CNS
  TGI: 30.9 µM
K-562 leukemia
  TGI: 58.1 µM

## CC(=O)N(C)SCC(NC(=O)C(Cc1ccccc1)NC(=O)OCC1c2ccccc2-c2ccccc21)C(=O)NC(Cc1ccccc1)C(=O)NC(Cc1cn(C=O)c2ccccc12)C(=O)NC(CCCCNC(=O)OCC1c2ccccc2-c2ccccc21)C(=O)NC(C(=O)NC(CSN(C)C(C)=O)C(=O)NC(C(N)=O)C(C)O)C(C)O (stereo unspecified) (Fmoc-F[X31]FW(For)K(Fmoc)T[X31]T-NH2; configuration not given here)
T-47D breast
  TGI: > 100 µM
TK-10 renal
  TGI: 67.5 µM
UO-31 renal
  TGI: 70.2 µM
RPMI-8226 leukemia
  TGI: > 100 µM
OVCAR-3 ovarian
  TGI: > 100 µM
SF-539 CNS
  TGI: > 100 µM
K-562 leukemia
  TGI: > 100 µM

## COC(=O)[C@@H]1[C@H](O)CC[C@H]2[C@@]1(C)CC[C@@H](C)[C@]2(COC(C)=O)CC(=O)c1ccoc1
T-47D breast
  TGI: > 50 µM
TK-10 renal
  TGI: > 50 µM
UO-31 renal
  TGI: > 50 µM
RPMI-8226 leukemia
  TGI: > 50 µM
OVCAR-3 ovarian
  TGI: > 50 µM
CAKI-1 renal
  TGI: > 50 µM
SF-539 CNS
  TGI: > 50 µM

## Cc1ccc(-n2cc(-c3ccc(Cl)cc3)c(C#N)c2N)cc1
TK-10 renal
  TGI: 28.2 µM
UO-31 renal
  TGI: 26.5 µM
OVCAR-3 ovarian
  TGI: 29.1 µM
CAKI-1 renal
  TGI: 45.3 µM
SF-539 CNS
  TGI: 30.9 µM
K-562 leukemia
  TGI: 47.9 µM

## Cc1nc(Nc2nc3ccccc3[nH]2)[nH]c(=O)c1CCO
T-47D breast
  TGI: > 100 µM
TK-10 renal
  TGI: > 81.4 µM
UO-31 renal
  TGI: > 100 µM
OVCAR-3 ovarian
  TGI: > 100 µM
CAKI-1 renal
  TGI: > 100 µM
SF-539 CNS
  TGI: > 65.3 µM
K-562 leukemia
  TGI: > 100 µM

## NCCCCCNOCCCN
T-47D breast
  TGI: > 100 µM
TK-10 renal
  TGI: > 100 µM
UO-31 renal
  TGI: > 100 µM
RPMI-8226 leukemia
  TGI: > 100 µM
OVCAR-3 ovarian
  TGI: > 100 µM
SF-539 CNS
  TGI: > 100 µM
K-562 leukemia
  TGI: > 100 µM

## O=C1c2c(ccc3c2CCCC3)CC1Cc1ccc2c(c1)CCCC2 (stereo unspecified)
T-47D breast
  TGI: 9.84 µM
TK-10 renal
  TGI: > 100 µM
UO-31 renal
  TGI: > 100 µM
RPMI-8226 leukemia
  TGI: > 100 µM
OVCAR-3 ovarian
  TGI: > 100 µM
SF-539 CNS
  TGI: > 100 µM
K-562 leukemia
  TGI: > 100 µM

## Cc1[nH]c2ccccc2c1C1=CC(=O)N(c2ccccc2)C1=O
TK-10 renal
  TGI: 60.7 µM
UO-31 renal
  TGI: > 100 µM
RPMI-8226 leukemia
  TGI: > 100 µM
OVCAR-3 ovarian
  TGI: > 100 µM
CAKI-1 renal
  TGI: > 100 µM
SF-539 CNS
  TGI: 27.1 µM
K-562 leukemia
  TGI: 29.8 µM

## COC1C(OC(N)=O)C(O)C(Oc2ccc3c(O)c(NC(=O)c4ccc(O)c(CC=C(C)C)c4)c(=O)oc3c2C)OC1(C)C (stereo unspecified)
T-47D breast
  TGI: > 100 µM
UO-31 renal
  TGI: > 100 µM
RPMI-8226 leukemia
  TGI: > 100 µM
OVCAR-3 ovarian
  TGI: > 100 µM
CAKI-1 renal
  TGI: > 100 µM
SF-539 CNS
  TGI: > 100 µM
K-562 leukemia
  TGI: > 100 µM

## CCOC(=O)NC(=S)NC(C)c1ccccc1 (stereo unspecified)
T-47D breast
  TGI: > 100 µM
TK-10 renal
  TGI: > 100 µM
UO-31 renal
  TGI: > 100 µM
RPMI-8226 leukemia
  TGI: > 100 µM
OVCAR-3 ovarian
  TGI: > 100 µM
CAKI-1 renal
  TGI: > 100 µM
K-562 leukemia
  TGI: > 100 µM
